From patent US10597388B2, “Pyridazinone herbicides” (FMC CORPORATION, priority 2014, dated 2020)

Experiments:
Assay in all cases: Test D controlled growth environment herbicide test, pre- and postemergence
Assay type in all cases: in vivo
[1] = tested on: barley, spring (spring barley, Hordeum vulgare)
From the text: (§1) Seeds of plant species selected from bluegrass (annual bluegrass, Poa annua), blackgrass (Alopecurus myosuroides), Canada thistle (Cirsium arvense), canarygrass (Phalaris minor), chickweed (common chickweed, Stellaria media), geranium, cutleaf (cutleaf geranium, Geranium dissectum), galium (catchweed bedstraw, Galium aparine), bromegrass, downy (downy bromegrass, Bromus tectorum), field poppy (Papaver rhoeas), field violet (Viola arvensis), foxtail, green (green foxtail, Setaria viridis), deadnettle (henbit deadnettle, Lamium amplexicaule), ryegrass, Italian (Italian ryegrass, Lolium multiflorum), kochia (Kochia scoparia), lambsquarters (Chenopodium album), oilseed rape (Brassica napus), pigweed (Amaranthus retroflexus), chamomile (scentless chamomile, Matricaria inodora), Russian thistle (Salsola kali), speedwell (bird's-eye speedwell, Veronica persica), barley, spring (spring barley, Hordeum vulgare), wheat, spring (spring wheat, Triticum aestivum), buckwheat, wild (wild buckwheat, Polygonum convolvulus), mustard, wild (wild mustard, Sinapis arvensis), oat, wild (wild oat, Avena fatua), radish, wild (wild radish, Raphanus raphanistrum), windgrass (Apera spica-venti), barley, winter (winter barley, Hordeum vulgare), and wheat, winter (winter wheat, Triticum aestivum) were planted into a silt loam soil and treated preemergence with test chemicals formulated in a non-phytotoxic solvent mixture which included a surfactant.
(§2) At the same time, these species were planted in pots containing Redi-Earth® planting medium (Scotts Company, 14111 Scottslawn Road, Marysville, Ohio 43041) comprising spaghnum peat moss, vermiculite, wetting agent and starter nutrients and treated with postemergence applications of the test chemicals formulated in the same manner. Plants ranged in height from 2 to 18 cm (1- to 4-leaf stage). Treated plants and controls were maintained in a controlled growth environment for 14 to 21 d after which time all species were compared to controls and visually evaluated. Plant response ratings, summarized in Table D, are based on a scale of 0 to 100 where 0 is no effect and 100 is complete control. A dash (-) response means no test result.

[2] = tested on: oat, wild (wild oat, Avena fatua)
From the text: as §1, §2

[3] = tested on: galium (catchweed bedstraw, Galium aparine)
From the text: as §1, §2

[4] = tested on: foxtail, green (green foxtail, Setaria viridis)
From the text: as §1, §2

[5] = tested on: field poppy (Papaver rhoeas)
From the text: as §1, §2

[6] = tested on: buckwheat, wild (wild buckwheat, Polygonum convolvulus)
From the text: as §1, §2

[7] = tested on: canarygrass (Phalaris minor)
From the text: as §1, §2

[8] = tested on: bluegrass (annual bluegrass, Poa annua)
From the text: as §1, §2

[9] = tested on: barley, winter (winter barley, Hordeum vulgare)
From the text: as §1, §2

[10] = tested on: wheat, spring (spring wheat, Triticum aestivum)
From the text: as §1, §2

[11] = tested on: oilseed rape (Brassica napus)
From the text: as §1, §2

[12] = tested on: pigweed (Amaranthus retroflexus)
From the text: as §1, §2

[13] = tested on: mustard, wild (wild mustard, Sinapis arvensis)
From the text: as §1, §2

[14] = Postemergence, 31 g ai/ha, scale 0 to 100 (0 no effect, 100 complete control)
[15] = Postemergence, 125 g ai/ha, visual rating on scale 0 (no effect) to 100 (complete control), 14 to 21 d
[16] = Postemergence, 250 g ai/ha, scale 0 to 100 (0 no effect, 100 complete control)
[17] = Preemergence, 62 g ai/ha, scale 0 to 100 (0 no effect, 100 complete control)
[18] = Preemergence, 125 g ai/ha, scale 0 to 100 (0 no effect, 100 complete control)
[19] = Preemergence, 250 g ai/ha, scale 0 to 100, 0 no effect, 100 complete control
[20] = postemergence, 62 g ai/ha, scale 0 to 100, 0 no effect, 100 complete control

## Cc1nn(C)c(=O)c(-c2c(C)sc3c(C)cc(Cl)cc23)c1O [Compound 35]
[1]; [14]
  Plant response rating, Barley, Spring: 0
[1]; [15]
  Plant response rating, Barley, Spring: 10
[1]; [16]
  Plant response rating, Barley, Spring: 15
[1]; Preemergence, 31 g ai/ha
  Plant response rating (scale of 0 to 100), Barley, Spring: 0
[1]; [17]
  Plant response rating, Barley, Spring: 0
[1]; [18]
  Plant response rating, Barley, Spring: 0
[1]; [19]
  Barley, Spring plant response rating: 0
[1]; [20]
  Plant response rating, Barley, Spring: 0
[2]; [14]
  Oat, Wild plant response rating: 85
[2]; [15]
  Plant response rating, Oat, Wild: 85
[2]; [16]
  Plant response rating, Oat, Wild: 98
[2]; Preemergence, 31 g ai/ha
  Plant response rating (scale of 0 to 100), Oat, Wild: 75
[2]; [17]
  Plant response rating, Oat, Wild: 80
[2]; [18]
  Plant response rating, Oat, Wild: 85
[2]; [19]
  Plant response rating, Oat, Wild: 95
[2]; [20]
  Plant response rating, Oat, Wild: 90
[3]; [14]
  Galium plant response rating: 98
[3]; [15]
  Plant response rating, Galium: 95
[3]; [16]
  Plant response rating, Galium: 100
[3]; Preemergence, 31 g ai/ha
  Plant response rating (scale of 0 to 100), Galium: 80
[3]; [17]
  Plant response rating, Galium: 85
[3]; [18]
  Plant response rating, Galium: 95
[3]; [19]
  Plant response rating, Galium: 100
[3]; [20]
  Plant response rating, Galium: 98
[4]; [14]
  Foxtail, Green plant response rating: 75
[4]; [15]
  Plant response rating, Foxtail, Green: 95
[4]; [16]
  Plant response rating, Foxtail, Green: 95
[4]; Preemergence, 31 g ai/ha
  Plant response rating (scale of 0 to 100), Foxtail, Green: 50
[4]; [17]
  Plant response rating, Foxtail, Green: 45
[4]; [18]
  Plant response rating, Foxtail, Green: 65
[4]; [19]
  Plant response rating, Foxtail, Green: 100
[4]; [20]
  Plant response rating, Foxtail, Green: 90
[5]; [14]
  Field Poppy plant response rating: 100
[5]; [15]
  Plant response rating, Field Poppy: 100
[5]; [16]
  Plant response rating, Field Poppy: 100
[5]; Preemergence, 31 g ai/ha
  Plant response rating (scale of 0 to 100), Field Poppy: 75
[5]; [17]
  Plant response rating, Field Poppy: 85
[5]; [18]
  Plant response rating, Field Poppy: 100
[5]; [19]
  Plant response rating, Field Poppy: 100
[5]; [20]
  Plant response rating, Field Poppy: 100
[6]; [14]
  Buckwheat, Wild plant response rating: 95
[6]; [15]
  Plant response rating, Buckwheat, Wild: 100
[6]; [16]
  Plant response rating, Buckwheat, Wild: 100
[6]; Preemergence, 31 g ai/ha
  Plant response rating (scale of 0 to 100), Buckwheat, Wild: 15
[6]; [17]
  Plant response rating, Buckwheat, Wild: 20
[6]; [18]
  Plant response rating, Buckwheat, Wild: 20
[6]; [19]
  Plant response rating, Buckwheat, Wild: 35
[6]; [20]
  Plant response rating, Buckwheat, Wild: 100
[7]; [14]
  Canarygrass plant response rating: 20
[7]; [15]
  Plant response rating, Canarygrass: 70
[7]; [16]
  Plant response rating, Canarygrass: 80
[7]; Preemergence, 31 g ai/ha
  Plant response rating (scale of 0 to 100), Canarygrass: 75
[7]; [17]
  Plant response rating, Canarygrass: 85
[7]; [18]
  Plant response rating, Canarygrass: 95
[7]; [19]
  Plant response rating, Canarygrass: 98
[7]; [20]
  Plant response rating, Canarygrass: 30
[8]; [14]
  Bluegrass plant response rating: 35
[8]; [15]
  Plant response rating, Bluegrass: 35
[8]; [16]
  Plant response rating, Bluegrass: 40
[8]; Preemergence, 31 g ai/ha
  Plant response rating (scale of 0 to 100), Bluegrass: 25
[8]; [17]
  Plant response rating, Bluegrass: 25
[8]; [18]
  Plant response rating, Bluegrass: 35
[8]; [19]
  Bluegrass plant response rating: 45
[8]; [20]
  Plant response rating, Bluegrass: 25
[9]; [14]
  Plant response rating, Barley, Winter: 0
[9]; [15]
  Plant response rating, Barley, Winter: 0
[9]; [16]
  Plant response rating, Barley, Winter: 15
[9]; Preemergence, 31 g ai/ha
  Plant response rating (scale of 0 to 100), Barley, Winter: 0
[9]; [17]
  Plant response rating, Barley, Winter: 0
[9]; [18]
  Plant response rating, Barley, Winter: 0
[9]; [19]
  Barley, Winter plant response rating: 0
[9]; [20]
  Plant response rating, Barley, Winter: 0
[10]; [14]
  Wheat, Spring plant response rating: 15
[10]; [15]
  Plant response rating, Wheat, Spring: 25
[10]; [16]
  Plant response rating, Wheat, Spring: 30
[10]; Preemergence, 31 g ai/ha
  Plant response rating (scale of 0 to 100), Wheat, Spring: 0
[10]; [17]
  Plant response rating, Wheat, Spring: 0
[10]; [18]
  Plant response rating, Wheat, Spring: 5
[10]; [19]
  Plant response rating, Wheat, Spring: 30
[10]; [20]
  Plant response rating, Wheat, Spring: 20
[11]; [14]
  Oilseed Rape plant response rating: 95
[11]; [15]
  Plant response rating, Oilseed Rape: 100
[11]; [16]
  Plant response rating, Oilseed Rape: 100
[11]; Preemergence, 31 g ai/ha
  Plant response rating (scale of 0 to 100), Oilseed Rape: 0
[11]; [17]
  Plant response rating, Oilseed Rape: 10
[11]; [18]
  Plant response rating, Oilseed Rape: 65
[11]; [19]
  Plant response rating, Oilseed Rape: 100
[11]; [20]
  Plant response rating, Oilseed Rape: 98
[12]; [14]
  Pigweed plant response rating: 80
[12]; [15]
  Plant response rating, Pigweed: 85
[12]; [16]
  Plant response rating, Pigweed: 98
[12]; Preemergence, 31 g ai/ha
  Plant response rating (scale of 0 to 100), Pigweed: 25
[12]; [17]
  Plant response rating, Pigweed: 95
[12]; [18]
  Plant response rating, Pigweed: 100
[12]; [19]
  Plant response rating, Pigweed: 100
[12]; [20]
  Plant response rating, Pigweed: 80
[13]; [14]
  Mustard, Wild plant response rating: 98
[13]; [15]
  Plant response rating, Mustard, Wild: 100
[13]; [16]
  Plant response rating, Mustard, Wild: 100
[13]; Preemergence, 31 g ai/ha
  Plant response rating (scale of 0 to 100), Mustard, Wild: 85
[13]; [17]
  Plant response rating, Mustard, Wild: 100
[13]; [18]
  Plant response rating, Mustard, Wild: 100
[13]; [19]
  Plant response rating, Mustard, Wild: 100
[13]; [20]
  Plant response rating, Mustard, Wild: 100

## Cc1ccc2ccccc2c1-c1c(O)c(Br)nn(C)c1=O [Compound 23]
[1]; [15]
  Plant response rating, Barley, Spring: 25
[1]; [16]
  Plant response rating, Barley, Spring: 30
[1]; [20]
  Plant response rating, Barley, Spring: 15
[2]; [15]
  Plant response rating, Oat, Wild: 95
[2]; [16]
  Plant response rating, Oat, Wild: 95
[2]; [20]
  Plant response rating, Oat, Wild: 75
[3]; [15]
  Plant response rating, Galium: 100
[3]; [16]
  Plant response rating, Galium: 100
[3]; [20]
  Plant response rating, Galium: 100
[4]; [15]
  Plant response rating, Foxtail, Green: 80
[4]; [16]
  Plant response rating, Foxtail, Green: 90
[4]; [20]
  Plant response rating, Foxtail, Green: 75
[5]; [15]
  Plant response rating, Field Poppy: 100
[5]; [16]
  Plant response rating, Field Poppy: 100
[5]; [20]
  Plant response rating, Field Poppy: 100
[6]; [15]
  Plant response rating, Buckwheat, Wild: 100
[6]; [16]
  Plant response rating, Buckwheat, Wild: 100
[6]; [20]
  Plant response rating, Buckwheat, Wild: 100
[7]; [15]
  Plant response rating, Canarygrass: 85
[7]; [16]
  Plant response rating, Canarygrass: 90
[7]; [20]
  Plant response rating, Canarygrass: 75
[8]; [15]
  Plant response rating, Bluegrass: 35
[8]; [16]
  Plant response rating, Bluegrass: 40
[8]; [20]
  Plant response rating, Bluegrass: 35
[9]; [15]
  Plant response rating, Barley, Winter: 25
[9]; [16]
  Plant response rating, Barley, Winter: 30
[9]; [20]
  Plant response rating, Barley, Winter: 15
[10]; [15]
  Plant response rating, Wheat, Spring: 60
[10]; [16]
  Plant response rating, Wheat, Spring: 60
[10]; [20]
  Plant response rating, Wheat, Spring: 50
[11]; [15]
  Plant response rating, Oilseed Rape: 65
[11]; [16]
  Plant response rating, Oilseed Rape: 85
[11]; [20]
  Plant response rating, Oilseed Rape: 60
[12]; [15]
  Plant response rating, Pigweed: 85
[12]; [16]
  Plant response rating, Pigweed: 100
[12]; [20]
  Plant response rating, Pigweed: 75
[13]; [15]
  Plant response rating, Mustard, Wild: 100
[13]; [16]
  Plant response rating, Mustard, Wild: 100
[13]; [20]
  Plant response rating, Mustard, Wild: 95
